Assay results as given in patent US7605156B2, “Methods for the use of inhibitors of cytosolic phospholipase A2” (Wyeth, priority 2001, dated 2009).

Columns and labels:
ApoE KO mice = assay: ApoE knockout mouse model of atherosclerosis; assay type: in vivo; settings: 3.3 mg/g in chow, 20 weeks
cPLA2 = molecular target: T1, cPLA2 (Homo sapiens, UniProt P47712); assay: Coumarine assay (hydrolysis of 7-hydroxycoumarinyl 6-heptenoate); assay type: biochemical; settings: 60 μM 7-hydroxycoumarinyl 6-heptenoate, pH 7.5; read-out: Coumarin IC50
T1 sequence (P47712 1-749): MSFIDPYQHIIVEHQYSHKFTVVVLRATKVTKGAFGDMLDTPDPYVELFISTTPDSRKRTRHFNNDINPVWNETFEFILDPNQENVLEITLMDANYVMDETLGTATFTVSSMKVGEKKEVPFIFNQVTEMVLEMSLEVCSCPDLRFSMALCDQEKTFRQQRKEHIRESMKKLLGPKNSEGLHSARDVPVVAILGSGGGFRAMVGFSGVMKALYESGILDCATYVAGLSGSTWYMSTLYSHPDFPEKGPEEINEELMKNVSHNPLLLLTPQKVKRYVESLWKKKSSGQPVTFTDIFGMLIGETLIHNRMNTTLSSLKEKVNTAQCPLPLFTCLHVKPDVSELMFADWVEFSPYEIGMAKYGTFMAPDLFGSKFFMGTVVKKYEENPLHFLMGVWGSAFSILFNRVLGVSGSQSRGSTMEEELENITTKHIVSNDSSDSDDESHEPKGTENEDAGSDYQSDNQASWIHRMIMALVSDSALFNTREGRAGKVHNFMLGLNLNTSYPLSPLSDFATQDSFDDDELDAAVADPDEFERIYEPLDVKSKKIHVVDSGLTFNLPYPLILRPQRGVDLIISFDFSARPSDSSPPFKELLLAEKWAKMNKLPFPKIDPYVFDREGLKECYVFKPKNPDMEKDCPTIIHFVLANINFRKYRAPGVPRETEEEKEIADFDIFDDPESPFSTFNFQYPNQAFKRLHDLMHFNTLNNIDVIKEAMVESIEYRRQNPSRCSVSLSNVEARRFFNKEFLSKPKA

B6 mice = assay: Experimental autoimmune encephalomyelitis (EAE), animal model of multiple sclerosis; assay type: in vivo; settings: orally, 100 mg/kg, twice/day
Procedure: Six groups of B6 mice were immunized with MOG/CFA and injected with pertussis toxin to induce experimental autoimmune encephalomyelitis (EAE), an animal model of Multiple sclerosis. […] Another three groups of mice were treated with vehicle, Compound A or Compound B starting on the day of EAE onset (day 15) (orally, 100 mg/kg, twice/day). […] The results are shown in FIG. 1, wherein mean clinical score is a mean of clinical evaluation of each animal for that particular day. Animals are scored as follows: • 0 no clinical signs of EAE (no paralysis) • 1—paralysis of tail • 2—paralysis of tail and partial hind leg paralysis • 3—paralysis of tail And complete hind leg paralysis • 4—paralysis of tail, complete hind leg paralysis and a partial front leg paralysis • 5—moribund animal (all four limbs paralyzed, lack of responsiveness, these mice were immediately euthanized).

IC50 (cPLA2) [µM]	SMILES	also measured
	O=C(O)c1ccc(CCCc2c(CCNS(=O)(=O)Cc3ccc(Cl)c(Cl)c3)n(C(c3ccccc3)c3ccccc3)c3ccc(Cl)cc23)cc1 [Example 44]	atherosclerotic plaque burden at the aortic sinus (ApoE KO mice): 282697±146462 μm^2; decrease of atherosclerotic plaque burden at the aortic sinus (ApoE KO mice; vs control animals, p<0.001): 45.6%
0.32	O=C(O)c1ccc(OCCc2c(CCNS(=O)(=O)Cc3ccc(Cl)c(Cl)c3)n(C(c3ccccc3)c3ccccc3)c3ccc(Cl)cc23)cc1F [Example 296, 4-{2-[1-benzhydryl-5-chloro-2-(2-{[(3,4-dichlorobenzyl)sulfonyl]amino}ethyl)-1H-indol-3-yl]ethoxy}-2-fluorobenzoic acid]	melting point: 117 to 119 °C
0.19	CC(C)(Cc1ccc(S(=O)(=O)CCc2c(CCNS(=O)(=O)Cc3ccc(Cl)c(Cl)c3)n(C(c3ccccc3)c3ccccc3)c3ccc(Cl)cc23)cc1)C(=O)O [Example 298, 3-[4-({2-[1-benzhydryl-5-chloro-2-(2{[(3,4-dichlorobenzyl)sulfonyl]amino}ethyl)-1H-indol-3-yl]ethyl}sulfonyl)phenyl]-2,2-dimethylpropanoic acid]	melting point: 207 to 208 °C
	O=C(O)c1ccc(OCCc2c(CCNS(=O)(=O)Cc3ccc(Cl)c(Cl)c3)n(C(c3ccccc3)c3ccccc3)c3ccc(Cl)cc23)cc1 [Example 10, 4-{2-[1-Benzhydryl-5-chloro-2-(2-{[(3,4-dichlorobenzyl)sulfonyl]amino}-ethyl)-1H-indol-3-yl]ethoxy}benzoic acid]	EAE clinical score: prevention of EAE (B6 mice; from the day of immunization): prevent EAE; EAE clinical score: clinical severity of EAE (B6 mice; starting on the day of EAE onset (day 15)): reduce clinical severity of EAE
0.3	O=C(O)c1ccc(OCCc2c(CCNS(=O)(=O)Cc3ccccc3Cl)n(C(c3ccccc3)c3ccccc3)c3ccc(Cl)cc23)cc1F [Example 297, 4-{2-[1-benzhydryl-5-chloro-2-(2-{[(2-chlorobenzyl)sulfonyl]amino}ethyl)-1H-indol-3-yl]ethoxy}-2-fluorobenzoic acid]	melting point: 132 to 135 °C
0.36	COc1cc(C)ccc1S(=O)(=O)NCCc1c(CCOc2ccc(C(=O)O)cc2)c2cc(Cl)ccc2n1C(c1ccccc1)c1ccccc1 [Example 171, 4-{2-[1-benzhydryl-5-chloro-2-(2-{[(2-methoxy-4-methylphenyl)sulfonyl]amino}ethyl)-1H-indol-3-yl]ethoxy}benzoic acid]	
0.37	Cc1ccc(S(=O)(=O)NCCc2c(CCOc3ccc(C(=O)O)cc3)c3cc(Cl)ccc3n2C(c2ccccc2)c2ccccc2)cc1Cl [Example 260, 4-{2-[1-benzhydryl-5-chloro-2-(2-{[(3-chloro-4-methylphenyl)sulfonyl]amino}ethyl)-1H-indol-3-yl]ethoxy}benzoic acid]	
0.2	CS(=O)(=O)c1ccccc1S(=O)(=O)NCCc1c(CCCc2ccc(C(=O)O)cc2)c2cc(Cl)ccc2n1C(c1ccccc1)c1ccccc1 [Example 204, 4-(3-{1-Benzhydryl-5-chloro-2-[2({[2-(methylsulfonyl)phenyl]sulfonyl}amino)ethyl]-1H-indol-3-yl}propyl)benzoic acid]	
0.32	O=C(O)c1ccc(CCCc2c(CCNS(=O)(=O)c3ccc(N4CCOCC4)nc3)n(C(c3ccccc3)c3ccccc3)c3ccc(Cl)cc23)cc1 [Example 181, 4-{3-[1-benzhydryl-5-chloro-2-(2-{[(6-morpholin-4-ylpyridin-3-yl)sulfonyl]amino}ethyl)-1H-indol-3-yl]propyl}benzoic acid]	
0.2	O=C(O)CCc1ccc(S(=O)(=O)CCc2c(CCNS(=O)(=O)c3ccccc3Cl)n(C(c3ccccc3)c3ccccc3)c3ccc(Cl)cc23)cc1 [Example 259, 3-[4-({2-[1-benzhydryl-5-chloro-2-(2-{[(2-chlorophenyl)sulfonyl]amino}ethyl)-1H-indol-3-yl]ethyl}sulfonyl)phenyl]propanoic acid]	
0.4	O=C(O)c1ccc(CCCc2c(CCNS(=O)(=O)c3cc(Cl)c(F)cc3F)n(C(c3ccccc3)c3ccccc3)c3ccc(Cl)cc23)cc1 [Example 166, 4-{3-[1-benzhydryl-5-chloro-2-(2-{[(5-chloro-2,4-difluorophenyl)sulfonyl]amino}ethyl)-1H-indol-3-yl]propyl}benzoic acid]	
0.19	O=C(O)c1ccc(CCCc2c(CCNS(=O)(=O)c3ccccc3F)n(C(c3ccccc3)c3ccccc3)c3ccc(Cl)cc23)cc1 [Example 222, 4-{3-[1-Benzhydryl-5-chloro-2-(2-{[(2-fluorophenyl)sulfonyl]amino}ethyl)-1H-indol-3-yl)propyl]benzoic acid]	
